Earlier results, collected in patent US8946301B2, “Targeting of T-lymphocytes to treat amyotrophic lateral sclerosis” (ALS Therapy Development Institute, priority 2011, dated 2015).
Where a name gives a salt, the structure may show the parent alone.

Tests used:
[1] = system: patients with ALS; conditions: Borras-Blasco et al. 1998; cited from earlier work
[2] = cited from earlier work
[3] = system: peripheral blood mononuclear cells (lymphocytes and monocytes); conditions: published reports; cited from earlier work

## Nc1nc2ccc(OC(F)(F)F)cc2s1 [Riluzole™]
[1]
  muscular strength of ALS patients: does not appear to provide an improvement of muscular strength

## CCCCCCCCc1ccc(CCC(N)(CO)CO)cc1 [Fingolimod hydrochloride]
[2]; 0.9% saline
  solubility in 0.9% saline: soluble
[2]; aqueous buffers, pH at or above 3.0
  solubility in aqueous buffers at or above pH 3.0: very slightly soluble or practically insoluble
[2]; aqueous buffers, pH at or below 2.0
  solubility in aqueous buffers at or below pH 2.0: soluble
[2]; water
  solubility in water: > 10%

## NC(CO)(CO)CCc1ccc(Sc2cccc(OCc3ccccc3)c2)cc1Cl [KRP-203, 2-amino-2-[2-[2-chloro-4-(3-phenylmethoxyphenyl)sulfanylphenyl]ethyl]propane-1,3-diol]
[3]
  lymphocyte homing into peripheral lymph nodes: enhanced
  number of granulocytes: not
  number of peripheral blood mononuclear cells (lymphocytes and monocytes): reduce the number
